This is an account of results in US20200249194A9, “PROSTATE PROTEASE NANOSENSORS AND USES THEREOF” (Massachusetts Institute of Technology, priority 2017, published 2020).

Test [1] relates to 15 selected proteases (MPs and SPs); Thrombin, Factor Xa and human plasma as negative filters. In words: Cleavage of FRET-paired peptide substrates (free and PEG-coupled) by recombinant proteases. It counts as biochemical. The source says: With an identified set of MPs and SPs, a panel of substrates was developed to measure their activity. A panel of 58 FRET-paired peptide substrates (labeled T1-58-Q, where Q denotes quenched Table 6) was screened for cleavage by the 15 selected proteases. To account for background cleavage in circulation, Thrombin, Factor Xa, and human plasma were included as negative filters. The library comprised peptides with diverse physiochemical properties to provide broad coverage, and kinetic parameters of cleavage of the FRET-paired substrates by recombinant proteases were measured and z-score normalized by protease. Substrates were grouped by hierarchical clustering to remove substrates with overlapping cleavage patterns, as they would not provide any orthogonal insight, resulting in a down-selected panel of 26 substrates.
For use in vivo, the peptides may be conjugated to a nanoparticle having robust accumulation in the prostate abilities. Thus, a biodistribution study was performed with three fluorophore-labeled carrier candidates and tested for their biodistribution following i.v. injection. […] Thus, the peptide substrates were conjugated to a PEG core and their cleavage profile was tested. […] Further mechanistic understanding of this variability may improve the development of ABN technology by identifying optimal surface presentation. […] Some substrates were cleaved specifically by a single protease on the biomarker list, whereas others were cleaved by multiple or all members of the enzyme family tested (Table 7).

Test [2] deals with serine hydrolase. Set-up: species or system human.
Test [3] relates to 22Rv1 cell line supernatant. Description: Cleavage of 19-plex fluorogenic ABNs in 22Rv1 supernatant. It counts as cell-based, human.
The test system of test [4] is PC3 cell line supernatant. In words: Cleavage of 19-plex fluorogenic ABNs in PC3 supernatant. It is filed as cell-based, human. To be noted: for overall cleavage activity in the presence of inhibitor: PC3 supernatant, 19-plex fluorogenic ABNs; for cleavage by PC3 supernatant compared with 22Rv1: in vitro, fluorogenic.
Test [5] relates to tumor protease activity. Description: In vivo protease activity imaging study. Set-up: species or system mice. To be noted: red-shifted FRET pair.
Test [6] concerns MMP13, uPA, KLK, MMP. Description: Substrate cleavage assay of protease nanosensors (FIG. 12A). It counts as biochemical. The procedure:
Xenograft model 22Rv1 (a non-metastatic tumor, referred to as Tnon-met) is derived from a primary tumor. […] PC3 (a metastatic tumor, referred to as Tmet) is undifferentiated, AR^−, PSA^−, and metastasizes to lymph node (LN), lung, and bone. Multiplexed sensors were selected to classify Tmet from Tnon-met (FIGS. 7A-7F). A substrate cleavage assay was performed (FIG. 12A) with several protease nanosensors (FIGS. 9A-9B and FIGS. 12A-12B).

The test system of test [7] is PC3 xenografts. Description: Urinary reporter signal of ABNs in PC3 xenograft-bearing mice. It is filed as in vivo. To be noted: for relative urine signal, PC3 compared with 22Rv1: 19-plex, mass-encoded reporters, xenografts ~100 mm3; for classification of PC3-bearing from 22Rv1-bearing mice: ROC curve analysis. The procedure: Having achieved this proof-of-concept urine monitoring of protease activity with a single substrate, the entire ABN library was tested in vivo with an emphasis on identifying reporters to differentiate mice bearing more aggressive (PC3) versus less aggressive (22Rv1) xenografts. To quantify cleavage of the entire library in urine, the substrates were barcoded using a next generation of mass-encoded reporters built upon the isobar coded reporters method (Kwong et al., Nat Biotechnol 31:63-70 (2013)). This […] sensor library enables increased multiplexing by uniquely labeling each peptide with stable 13C and 15N atoms, allowing for quantitation of reporter barcodes across a large dynamic range using liquid chromatography-tandem mass spectrometry (Table 8). To account for variability in glomerular filtration rate, urine volume, and hydration state, a free reporter (not coupled to PEG) was co-injected. The 19-plex ABN library was serially injected i.v. to PC3 tumor-bearing mice over the course of tumor development. […] Next, the ability of the 19-plex library to classify PC3 from 22Rv1 tumor-bearing mice was sought to be determined. Using the mass-encoded reporters to examine the cleavage of each individual sensor, an early time point was focused on and it was observed that several substrates were differentially cleaved between animals bearing similarly sized xenografts ( 100 mm3) from the more (PC3) versus less aggressive (22Rv1) cell lines. Overall, the cleavage profile differences between the two cohorts agree with each cell line's protease expression patterns and the substrate specificity of each protease. […] To simplify urinalysis, these ABNs were designed to release biotinylated urinary reporters to enable ELISA-based readouts. […] Additionally, PSA measurements in mice may overestimate its sensitivity, as there is no mouse homolog of PSA (Lundwall et al., Biol Chem 387:243-249 (2006)). It was next tested whether the three-plex iRGD-ABNs could classify distinct prostate cancer tumors. […] Based on ROC curve analysis, the […] ABNs classified the mice bearing the more aggressive PC3-derived tumors as distinct from 22Rv1-bearing mice. […] Differential expression analysis was performed on TCGA data using […]. Survival analysis was performed using cBioPortal. SOMAscan was performed at the Beth Israel Deaconess Medical Center (BIDMC) Genomics Proteomics Core. […] Sigma) at 1 μM in PBS. • Animal Models. All animal studies were approved by Massachusetts Institute of Technology's Committee on Animal Care (CAC) (Protocol 0417-025-20). Four- to six-week-old male NCr nude mice (Taconic) were injected bilaterally with 3.5×10^6 PCa cells per flank in a 1:1 ratio of complete media and Matrigel (354234; Corning). Baseline urine measurement was obtained before xenograft implantation. Histology sectioning and staining was performed at KI Histology Core.

For test [8], the system named is MMP activity. In words: FRET peptide substrate-cleavage assay in prostate tumor and NAT tissue samples. It counts as biochemical. As to conditions: human prostate tumor and matched NAT. The procedure:
An assay was developed to measure protease activity in tissue samples. The mouse samples were excised, frozen in LN2, homogenized in PBS at 200 mgs/mL, and incubated with Q7 (FIG. 14A). In situ tissue zymography assays were additionally developed for frozen sections. Five sets of clinical human samples (both tumor and normal adjacent) were examined (FIG. 14B). The remaining fraction was tested on FRET substrates. Human sample cleavage was analyzed with substrate cleavage assays (Table 3). It was observed that many substrates are differentially cleaved in cancer tissue versus normal adjacent tissue.
As MP ABPs are less robust than serine ABPs, a FRET peptide substrate-cleavage assay was used to assay for MMP activity in the same tissue set evaluated by SOMAscan. Given the minimal tissue material available, each sample was evaluated with only a subset of substrates in duplicate. Multiple substrates were cleaved to a greater extent in tumor samples.

Test [9] deals with 22Rv1 xenografts. Description: Urinary reporter signal of ABNs in 22Rv1 xenograft-bearing mice. It counts as in vivo.
Test [10] has as its system 22Rv1 xenograft tumor homogenates. Description: Protease activity of tumor homogenates ex vivo. It counts as biochemical, mice.
Setting [11] is: PEG-coupled quenched substrate, protease that cleaves it.

“Also recorded” adds a separate entry of the source. Non-standard residues stand in square brackets, D forms with d. Primed or numbered codes have the meaning given here. No end group written: not given here. *: point of attachment. 5FAM = O=C1OC2(c3ccc(O)cc3Oc3cc(O)ccc32)c2ccc(C(=O)*)cc21; Biotin = O=C1N[C@H]2[C@H](CS[C@H]2CCCCC(=O)*)N1; CPQ2 = quencher paired with 5FAM as FRET pair; PEG2′ = not defined here; PEG = not defined here; QSY21 = QSY21 quencher; Cy5 = Cy5 fluorophore

For the molecule “PEG-T7-Q: quenched FRET peptide substrate T7 conjugated to PEG core (5FAM-GGPLGVRGKK(CPQ2)[PEG2′]C; also: conjugated to PEG core, attachment not given here)”, in [1] (setting [11]), the Second hit result is given as “MMP26” and the Top hit result was “MMP9”.
With `NCCc1ccc(S(=O)(=O)F)cc1` [AEBSF], the “effect of inhibitor on FP-TAMRA labeling” value in test [2] was “mitigated”. Moreover, the “overall cleavage activity in the presence of inhibitor” value in test [3] and in [4] was “reduced” throughout.
Take “PEG-T24-Q: quenched FRET peptide substrate T24 conjugated to PEG core (5FAM-GGLGPKGQTGK(CPQ2)[PEG2′]C; also: conjugated to PEG core, attachment not given here)”: the Top hit entry in test [1] (setting [11]) was “MMP13”.
Turning to “(QSY21)-GGPLGVRGKK(Cy5)-(PEG2)-C (QSY21-GGPLGVRGKK(Cy5)[PEG2′]C) [red-shifted FRET paired T7 substrate]”, the “fluorescence signal, tumor compared with liver” value in [5] is listed as “greater fluorescence signal in the tumor compared with the liver”.
As for “PB13: protease nanosensor, broadly cleaved KLK substrate, SEQ ID NO: 9 (Biotin-EGVNDNEEGFFSARKGSGSKIIGGGC(PEG); reading uncertain; also: TAMRA at positions 15-16)”, the “substrate specificity of nanosensor” value in test [6] is reported as “broadly cleaved KLK substrate”.
For “T39: uPA peptide substrate (GGGSGRSANAKG) of ABN library, reporter R3_09 (also: reporter R3_09 attached) [Substrate T39]”, the “protease that cleaves the substrate in vitro” value in test [1] is on record as “uPA”. Moreover, the “cleavage by PC3 supernatant compared with 22Rv1” value in test [4] is listed as “cleaved differentially”. Also, in [7], the “relative urine signal, PC3 compared with 22Rv1” value is listed as “higher relative urine signal change; also recorded: elevated”. Moreover, in test [7] (three-plex iRGD-ABNs), the “cleavage (individual reporter readout), PC3 relative to 22Rv1” value was “significantly greater cleavage” and the “classification of PC3-bearing from 22Rv1-bearing mice” value is listed as “classified”.
For “T24: MMP13 peptide substrate (GGLGPKGQTG) of ABN library, reporter R3_06 (also: reporter R3_06 attached) [Substrate T24]” the same measures were “MMP13”, “cleaved differentially”, “higher relative urine signal change; also recorded: elevated”, “significantly greater cleavage” and “classified”.
In the case of “T7: MMP-sensing peptide substrate (GPLGVRGK) of ABN library, reporter R3_04 (also: reporter R3_04 attached) [Substrate T7]”, the “cleavage signal, tumor vs NAT samples” value in [8] is on record as “signal was elevated across the majority of tumor samples”. The urine signal result in test [9] (19-plex library, 22Rv1 mice) was “gave rise to urine signals”; in [7] (19-plex library, PC3 mice) it was “gave rise to urine signals”. Also, in [9] (single sensor, biotinylated reporter, 22Rv1 xenograft-bearing mice), the urinary signal entry is “increased urinary signal”. The “urine signal relative to control animals” value in test [9] (three-plex iRGD-ABNs, individual reporter, 22Rv1-bearing) is recorded as “elevated relative to control animals”; in [7] (three-plex iRGD-ABNs, individual reporter, PC3-bearing), “elevated relative to control animals”. Further, the “classification of PC3-bearing from 22Rv1-bearing mice” value in test [7] (three-plex iRGD-ABNs) is given as “did not classify between the two cohorts”.
Regarding “PB2: protease nanosensor, uPA substrate, SEQ ID NO: 8 (Biotin-EGVNDNEEGFFSARKGGGSGRSANAKGC(PEG); reading uncertain; also: FAM label at residues 15-16, exact place not given here)”, the “substrate specificity of nanosensor” value in test [6] is given as “uPA substrate”.
With `CNC(=O)[C@@H](NC(=O)[C@H](CC(C)C)[C@H](O)C(=O)NO)C(C)(C)C` [marimastat], the “overall cleavage activity in the presence of inhibitor” value in test [3] and in test [4] was “reduced” throughout. Further, the “T7 sensor cleavage in the presence of inhibitor” value in [10] was “diminished”.
For the molecule “PEG-T39-Q: quenched FRET peptide substrate T39 conjugated to PEG core (5FAM-GGGSGRSANAKGK(CPQ2)[PEG2′]GC; also: conjugated to PEG core, attachment not given here)”, the Top hit result in test [1] (setting [11]) is recorded as “uPA”.
